Tested on: NOMO1
Experiment: cell viability relative to DMSO control; higher = less cytotoxic
Settings: 48 h
Method in brief: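 Viability was expressed as a per-plate percentage of DMSO wells, with cell-free wells as background. Leukemia cells (NOMO1 or SEM at 500 cells/well, P12-Ichikawa at 1000 cells/well) were adapted for at least four passages in each medium and seeded in 1536-well plates (5 μl). Library compounds in DMSO were pin-dosed over an 11-point threefold series from 47 μM to 0.79 nM, and CellTiter-Glo One luminescence was read after 48 h at 37°C.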

[1] = HPLM + 10% dialyzed FBS, 0.000781 µM
[2] = HPLM + 10% dialyzed FBS, 0.00234 µM
[3] = HPLM + 10% dialyzed FBS, 0.00702 µM
[4] = HPLM + 10% dialyzed FBS, 0.0211 µM
[5] = HPLM + 10% dialyzed FBS, 0.0632 µM
[6] = HPLM + 10% dialyzed FBS, 0.19 µM
[7] = HPLM + 10% dialyzed FBS, 0.569 µM
[8] = HPLM + 10% dialyzed FBS, 1.71 µM
[9] = HPLM + 10% dialyzed FBS, 5.12 µM
[10] = HPLM + 10% dialyzed FBS, 15.4 µM
[11] = HPLM + 10% dialyzed FBS, 46.1 µM
[12] = RPMI 5 mM glucose + 10% FBS, 0.000781 µM
[13] = RPMI 5 mM glucose + 10% FBS, 0.00234 µM
[14] = RPMI 5 mM glucose + 10% FBS, 0.00702 µM
[15] = RPMI 5 mM glucose + 10% FBS, 0.0211 µM
[16] = RPMI 5 mM glucose + 10% FBS, 0.0632 µM
[17] = RPMI 5 mM glucose + 10% FBS, 0.19 µM
[18] = RPMI 5 mM glucose + 10% FBS, 0.569 µM
[19] = RPMI 5 mM glucose + 10% FBS, 1.71 µM
[20] = RPMI 5 mM glucose + 10% FBS, 5.12 µM
[21] = RPMI 5 mM glucose + 10% FBS, 15.4 µM
[22] = RPMI 5 mM glucose + 10% FBS, 46.1 µM
[23] = RPMI 5 mM glucose + 10% dialyzed FBS, 0.000781 µM
[24] = RPMI 5 mM glucose + 10% dialyzed FBS, 0.00234 µM
[25] = RPMI 5 mM glucose + 10% dialyzed FBS, 0.00702 µM
[26] = RPMI 5 mM glucose + 10% dialyzed FBS, 0.0211 µM
[27] = RPMI 5 mM glucose + 10% dialyzed FBS, 0.0632 µM
[28] = RPMI 5 mM glucose + 10% dialyzed FBS, 0.19 µM
[29] = RPMI 5 mM glucose + 10% dialyzed FBS, 0.569 µM
[30] = RPMI 5 mM glucose + 10% dialyzed FBS, 1.71 µM
[31] = RPMI 5 mM glucose + 10% dialyzed FBS, 5.12 µM
[32] = RPMI 5 mM glucose + 10% dialyzed FBS, 15.4 µM
[33] = RPMI 5 mM glucose + 10% dialyzed FBS, 46.1 µM

CC(C)CC(N(C)C)C1(c2ccc(Cl)cc2)CCC1 (centres undefined)
cell viability [1]: 118%
cell viability [2]: 136%
cell viability [3]: 120%
cell viability [4]: 119%
cell viability [5]: 116%
cell viability [6]: 117%
cell viability [7]: 116%
cell viability [8]: 113%
cell viability [9]: 107%
cell viability [10]: 94.5%
cell viability [11]: 87%
cell viability [12]: 110%
cell viability [13]: 113%
cell viability [14]: 113%
cell viability [15]: 118%
cell viability [16]: 117%
cell viability [17]: 123%
cell viability [18]: 119%
cell viability [19]: 116%
cell viability [20]: 98.2%
cell viability [21]: 94.1%
cell viability [22]: 99%
cell viability [23]: 109%
cell viability [24]: 110%
cell viability [25]: 124%
cell viability [26]: 115%
cell viability [27]: 122%
cell viability [28]: 119%
cell viability [29]: 120%
cell viability [30]: 112%
cell viability [31]: 111%
cell viability [32]: 103%
cell viability [33]: 95.1%

C[C@H]1Oc2cc(cnc2N)-c2c(nn(C)c2C#N)CN(C)C(=O)c2ccc(F)cc21
cell viability [12]: 106%
cell viability [13]: 132%
cell viability [14]: 125%
cell viability [15]: 108%
cell viability [16]: 119%
cell viability [17]: 126%
cell viability [18]: 123%
cell viability [19]: 123%
cell viability [20]: 131%
cell viability [21]: 106%
cell viability [22]: 101%

CCN(CC)CCCC(C)Nc1nc(C)cc(Nc2ccc3nc(C)cc(N)c3c2)n1 (centres undefined)
cell viability [1]: 79.6%
cell viability [2]: 105%
cell viability [3]: 124%
cell viability [4]: 125%
cell viability [5]: 108%
cell viability [6]: 125%
cell viability [7]: 119%
cell viability [8]: 129%
cell viability [9]: 102%
cell viability [10]: 111%
cell viability [11]: 114%
cell viability [12]: 96.3%
cell viability [13]: 111%
cell viability [14]: 110%
cell viability [15]: 113%
cell viability [16]: 123%
cell viability [17]: 116%
cell viability [18]: 124%
cell viability [19]: 110%
cell viability [20]: 120%
cell viability [21]: 108%
cell viability [22]: 111%
cell viability [23]: 106%
cell viability [24]: 108%
cell viability [25]: 114%
cell viability [26]: 111%
cell viability [27]: 122%
cell viability [28]: 115%
cell viability [29]: 120%
cell viability [30]: 107%
cell viability [31]: 115%
cell viability [32]: 94.6%
cell viability [33]: 103%

CCOC(=O)[C@H]1O[C@@H]1C(=O)N[C@@H](CC(C)C)C(=O)NCCC(C)C
cell viability [12]: 114%
cell viability [13]: 107%
cell viability [14]: 107%
cell viability [15]: 117%
cell viability [16]: 123%
cell viability [17]: 116%
cell viability [18]: 114%
cell viability [19]: 104%
cell viability [20]: 102%
cell viability [21]: 92.2%
cell viability [22]: 12.6%
cell viability [23]: 114%
cell viability [24]: 112%
cell viability [25]: 121%
cell viability [26]: 126%
cell viability [27]: 106%
cell viability [28]: 121%
cell viability [29]: 113%
cell viability [30]: 109%
cell viability [31]: 102%
cell viability [32]: 112%
cell viability [33]: 15.1%
